Results as given in PubChem BioAssay (NCI).
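Step 1: Grow cells in 96-well plates. Step 2: Expose to compound for 48 hours at 5 concentrations. Step 3: Interpolate endpoints linearly; if unreached, use highest concentration. TGI is the concentration that stops growth completely.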

Assays:
Assay in all cases: DTP human tumour cell line panel, 48 h
[1] = test system: SN12C renal
[2] = test system: HOP-92 NSCLC
[3] = test system: SR leukemia
[4] = test system: HCT-15 colon
[5] = test system: UACC-62 melanoma
[6] = test system: NCI-H23 lung
[7] = test system: NCI-H460 lung
[8] = test system: KM12 colon
[9] = test system: MALME-3M melanoma
[10] = test system: A549 NSCLC
[11] = test system: NCI/ADR-RES ovarian
[12] = test system: RXF 393 renal
[13] = test system: T-47D breast
[14] = test system: IGROV1 ovarian
[15] = test system: SK-MEL-28 melanoma
[16] = test system: EKVX NSCLC
[17] = test system: MDA-N
[18] = test system: PC-3 prostate
[19] = test system: LOX IMVI melanoma
[20] = test system: MDA-MB-231 breast
[21] = test system: U251 CNS
[22] = test system: DU-145 prostate
[23] = test system: MCF7 breast
[24] = test system: HT29 colon
[25] = test system: SF-539 CNS
[26] = test system: SK-OV-3 ovarian
[27] = test system: UACC-257 melanoma
[28] = test system: 786-0 renal
[29] = test system: HCC-2998 colon
[30] = test system: COLO 205 colon
[31] = test system: HCT-116 colon
[32] = test system: OVCAR-8 ovarian
[33] = test system: OVCAR-4 ovarian
[34] = test system: TK-10 renal
[35] = test system: HOP-62 NSCLC
[36] = test system: BT-549 breast
[37] = test system: OVCAR-5 ovarian
[38] = test system: K-562 leukemia
[39] = test system: ACHN renal
[40] = test system: CAKI-1 renal
[41] = test system: SK-MEL-2 melanoma
[42] = test system: NCI-H522 lung
[43] = test system: SNB-19 CNS
[44] = test system: SF-268 CNS
[45] = test system: SW-620 colon
[46] = test system: CCRF-CEM leukemia
[47] = test system: UO-31 renal
[48] = test system: SK-MEL-5 melanoma
[49] = test system: RPMI-8226 leukemia
[50] = test system: OVCAR-3 ovarian
[51] = test system: M14 melanoma
[52] = test system: SF-295 CNS

SMILES: O=C1/C(=C/c2cccc(Br)c2)CSC/C1=C\c1cccc(Br)c1
- TGI [1]: 5.22 µM
- TGI [2]: 7.43 µM
- TGI [3]: > 100 µM
- TGI [4]: 15.4 µM
- TGI [5]: 3.14 µM
- TGI [6]: 9.03 µM
- TGI [7]: 7.26 µM
- TGI [8]: 4.43 µM
- TGI [9]: 4.43 µM
- TGI [10]: 41.5 µM
- TGI [11]: 25.5 µM
- TGI [12]: 3.79 µM
- TGI [13]: 21.1 µM
- TGI [14]: 7.11 µM
- TGI [15]: 7.12 µM
- TGI [16]: 19.9 µM
- TGI [17]: 6.98 µM
- TGI [18]: 10.4 µM
- TGI [19]: 4.82 µM
- TGI [20]: 48.9 µM
- TGI [21]: 3.53 µM
- TGI [22]: 24.3 µM
- TGI [23]: 20.5 µM
- TGI [24]: 5.67 µM
- TGI [25]: 13.6 µM
- TGI [26]: 42 µM
- TGI [27]: 5.9 µM
- TGI [28]: 11.8 µM
- TGI [29]: 3.3 µM
- TGI [30]: 8.53 µM
- TGI [31]: 4.33 µM
- TGI [32]: 9.52 µM
- TGI [33]: 13.1 µM
- TGI [34]: 16.8 µM
- TGI [35]: 6.74 µM
- TGI [36]: 4.47 µM
- TGI [37]: 15.5 µM
- TGI [38]: 6.74 µM
- TGI [39]: 9.88 µM
- TGI [40]: 6.06 µM
- TGI [41]: 12 µM
- TGI [42]: 4.14 µM
- TGI [43]: 10.6 µM
- TGI [44]: 24.2 µM
- TGI [45]: 11.2 µM
- TGI [46]: 6.45 µM
- TGI [47]: 3.71 µM
- TGI [48]: 3.59 µM
- TGI [49]: 6.42 µM
- TGI [50]: 9.98 µM
- TGI [51]: 6.14 µM
- TGI [52]: 5.14 µM
